“And” between values parts separate entries of the source, which are not always exact repeats. Identical values can stand only once.
Assays:
[1] = biological target: T1, Eht1 (Saccharomyces cerevisiae, UniProt P38295); test: coupled alpha-ketoglutarate dehydrogenase assay of CoA release (NADH); format: biochemical; conditions: 0.125% ethanol, pH 7.4, 25 °C; assay insensitive to ethanol (thioesterase)
T1 construct: 55 kDa
T1 sequence (P38295 1-451): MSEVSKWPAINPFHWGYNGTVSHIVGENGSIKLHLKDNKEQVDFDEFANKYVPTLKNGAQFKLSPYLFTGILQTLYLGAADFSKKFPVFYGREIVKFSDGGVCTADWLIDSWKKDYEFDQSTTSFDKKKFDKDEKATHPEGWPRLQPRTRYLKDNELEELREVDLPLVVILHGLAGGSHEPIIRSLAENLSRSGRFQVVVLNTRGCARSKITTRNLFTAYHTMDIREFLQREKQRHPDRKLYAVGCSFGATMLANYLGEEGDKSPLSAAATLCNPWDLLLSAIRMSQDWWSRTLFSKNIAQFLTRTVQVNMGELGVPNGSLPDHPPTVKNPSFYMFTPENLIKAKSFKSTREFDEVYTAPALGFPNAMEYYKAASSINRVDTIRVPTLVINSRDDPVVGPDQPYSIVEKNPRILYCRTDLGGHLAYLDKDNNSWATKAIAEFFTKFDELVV

[2] = biological target: the molecule itself; test: SEC; Superdex 200 10/300 GL, 0.5 ml/min, in Column Buffer (50 mM sodium phosphate, pH 7.4, 150 mM NaCl, 5% glycerol, 0.1% FC-12); apparent size relative to molecular weight standards
[3] = biological target: the molecule itself; test: native gel or EMSA; blue native PAGE, 4–16% acrylamide Bis–Tris gels, Coomassie G-250 added to samples at 0.005%; purified Eht1 in FC12
[4] = substrate: CCCCCCCC(=O)SCCNC(=O)CCNC(=O)[C@H](O)C(C)(C)COP(=O)(O)OP(=O)(O)OC[C@H]1O[C@@H](n2cnc3c(N)ncnc32)[C@H](O)[C@@H]1OP(=O)(O)O; test: coupled alpha-ketoglutarate dehydrogenase assay of CoA release (NADH); format: biochemical, Saccharomyces cerevisiae; conditions: 0.125% ethanol, pH 7.4, 25 °C, assay insensitive to ethanol (thioesterase)
From the text: coupled alpha-ketoglutarate dehydrogenase assay of CoA release (NADH) on Eht1 | the preferred substrate for Eht1 was octanoyl-CoA (largest kcat/KM)

For `CCCC(=O)SCCNC(=O)CCNC(=O)[C@H](O)C(C)(C)COP(=O)(O)OP(=O)(O)OC[C@H]1O[C@@H](n2cnc3c(N)ncnc32)[C@H](O)[C@@H]1OP(=O)(O)O` [C4, acyl-CoA of chain length C4], the KM [1] was “acyl-CoA substrates of chain length C4–C14 followed classical Michaelis–Menten kinetics”.

For `CCCCCCCCCCCC(=O)SCCNC(=O)CCNC(=O)[C@H](O)C(C)(C)COP(=O)(O)OP(=O)(O)OC[C@H]1O[C@@H](n2cnc3c(N)ncnc32)[C@H](O)[C@@H]1OP(=O)(O)O` [acyl-CoA within chain lengths C4–C14 (C12)], the KM [1] was “acyl-CoA substrates of chain length C4–C14 followed classical Michaelis–Menten kinetics”.

`CCCCCCCCCC(=O)SCCNC(=O)CCNC(=O)[C@H](O)C(C)(C)COP(=O)(O)OP(=O)(O)OC[C@H]1O[C@@H](n2cnc3c(N)ncnc32)[C@H](O)[C@@H]1OP(=O)(O)O` [decanoyl-CoA] was tested, and the KM [1] was “acyl-CoA substrates of chain length C4–C14 followed classical Michaelis–Menten kinetics”.

With `CCCCCCCCCCCCCC(=O)SCCNC(=O)CCNC(=O)[C@H](O)C(C)(C)COP(=O)(O)OP(=O)(O)OC[C@H]1O[C@@H](n2cnc3c(N)ncnc32)[C@H](O)[C@@H]1OP(=O)(O)O` [C14, acyl-CoA of chain length C14] the KM [1] was “acyl-CoA substrates of chain length C4–C14 followed classical Michaelis–Menten kinetics”.

B1: ethanol hexanoyl transferase 1 (Eht1) (enzyme, Saccharomyces cerevisiae, UniProt P38295 1-451, looked up)
chain: MSEVSKWPAINPFHWGYNGTVSHIVGENGSIKLHLKDNKEQVDFDEFANKYVPTLKNGAQFKLSPYLFTGILQTLYLGAADFSKKFPVFYGREIVKFSDGGVCTADWLIDSWKKDYEFDQSTTSFDKKKFDKDEKATHPEGWPRLQPRTRYLKDNELEELREVDLPLVVILHGLAGGSHEPIIRSLAENLSRSGRFQVVVLNTRGCARSKITTRNLFTAYHTMDIREFLQREKQRHPDRKLYAVGCSFGATMLANYLGEEGDKSPLSAAATLCNPWDLLLSAIRMSQDWWSRTLFSKNIAQFLTRTVQVNMGELGVPNGSLPDHPPTVKNPSFYMFTPENLIKAKSFKSTREFDEVYTAPALGFPNAMEYYKAASSINRVDTIRVPTLVINSRDDPVVGPDQPYSIVEKNPRILYCRTDLGGHLAYLDKDNNSWATKAIAEFFTKFDELVV
notes: Theoretical mass of the recombinant protein is printed as 55 kDa; also called recombinant Eht1; YBR177C gene product; source: yeast, plasmid pYES2CT, galactose-induced; purified from FC12-solubilized sedimenting membranes (Ni-NTA)
For B1, the “stoichiometry N” value [2] was ~5, the “stoichiometry N” value [3] was ~2 and ~4 and the Km [4] was 1.9 ± 0.6 µM. It also gave a kcat [4] of 0.28 ± 0.02 s⁻¹.
